# Experimental data published in patent publication US9951065B2 (Gilead Sciences, Inc., priority 2015, dated 2018).
# pEC50: −log10 of the molar value.
# Biological target: T1, IDO1 (Homo sapiens, UniProt P14902)
# T1 construct: HeLa cells were treated with a test compound in the presence of IFNγ, which induces IDO1 expression; host or cells: H1-HeLa cells, IDO1 induced with IFNγ
# Assay: Cell-based (HeLa) assay for measurement of IDO1 inhibition (kynurenine levels in supernatant after IFNγ induction)
# Conditions: HeLa cells, IFNγ-induced IDO1, kynurenine in supernatant after 48 hour incubation; geometric mean of a minimum of four determinations
# Method in brief: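 IDO1 activity is read as kynurenine released into the medium, detected with Ehrlich's reagent (p-dimethylaminobenzaldehyde) at 480 nm after TCA treatment. HeLa cells were exposed 48 h to compounds in 0.5% DMSO alongside IFNγ induction. Values normalized to no-IFNγ and IFNγ controls; four-parameter EC50 given as geometric mean of ≥4 determinations.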
# T1 sequence (P14902 whole entry): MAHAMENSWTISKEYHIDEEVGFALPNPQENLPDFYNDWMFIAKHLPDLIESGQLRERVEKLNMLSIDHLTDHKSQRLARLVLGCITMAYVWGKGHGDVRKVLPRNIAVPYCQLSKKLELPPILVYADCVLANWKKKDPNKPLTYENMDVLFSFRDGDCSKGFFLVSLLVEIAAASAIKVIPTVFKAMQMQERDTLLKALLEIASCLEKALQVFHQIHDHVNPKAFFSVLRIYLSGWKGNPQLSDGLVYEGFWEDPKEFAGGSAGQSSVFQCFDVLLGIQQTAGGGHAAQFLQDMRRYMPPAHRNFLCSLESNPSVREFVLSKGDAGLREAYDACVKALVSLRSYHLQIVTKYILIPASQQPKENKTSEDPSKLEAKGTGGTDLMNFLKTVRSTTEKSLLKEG
row,Compound,pEC50
1,"O/N=C(\Nc1ccc(F)c(Cl)c1)c1ccnc2nc(C(O)c3ccccc3)[nH]c12 (centres unmarked) [Example 173, N-(3-Chloro-4-fluorophenyl)-N′-hydroxy-2-(hydroxy(phenyl)methyl)-1H-imidazo[4,5-b]pyridine-7-carboximidamide]",5.01
2,"O/N=C(\Nc1ccc(F)c(Cl)c1)c1ccnc2nc(CCN3CCOCC3)[nH]c12 [Example 191, N-(3-Chloro-4-fluorophenyl)-N′-hydroxy-2-(2-morpholinoethyl)-1H-imidazo[4,5-b]pyridine-7-carboximidamide]",5.55
3,"O/N=C(\Nc1ccc(F)c(Cl)c1)c1ccnc2nc(NCC(F)(F)F)[nH]c12 [Example 157, N-(3-Chloro-4-fluorophenyl)-N′-hydroxy-2-((2,2,2-trifluoroethyl)amino)-1H-imidazo[4,5-b]pyridine-7-carboximidamide]",5.96
4,"CN(C)CCc1nc2nccc(/C(=N/O)Nc3ccc(F)c(Br)c3)c2[nH]1 [Example 263, N-(3-bromo-4-fluorophenyl)-2-(2-(dimethylamino)ethyl)-N′-hydroxy-1H-imidazo[4,5-b]pyridine-7-carboximidamide]",6.25
5,"O/N=C(\Nc1ccc(F)c(C#CC2CC2)c1)c1ccnc2nc[nH]c12 [Example 79, N-(3-(Cyclopropylethynyl)-4-fluorophenyl)-N′-hydroxy-1H-imidazo[4,5-b]pyridine-7-carboximidamide]",5.49
6,"O/N=C(\Nc1cccc(Cl)c1)c1cc(F)c(F)c2nc(CNCC3CC3)[nH]c12 [Example 25, N-(3-Chlorophenyl)-2-(((cyclopropylmethyl)amino)methyl)-4,5-difluoro-N′-hydroxy-1H-benzo[d]imidazole-7-carboximidamide]",5.84
7,"O/N=C(\Nc1ccc(F)c(Cl)c1)c1ccnc2nc(CNCc3ccncc3)[nH]c12 [Example 133, N-(3-Chloro-4-fluorophenyl)-N′-hydroxy-2-(((pyridin-4-ylmethyl)amino)methyl)-1H-imidazo[4,5-b]pyridine-7-carboximidamide]",5.43
8,"CNc1nc2c(F)c(F)cc(/C(=N/O)Nc3ccc(F)c(Cl)c3)c2[nH]1 [Example 38, N-(3-Chloro-4-fluorophenyl)-4,5-difluoro-N′-hydroxy-2-(methylamino)-1H-benzo[d]imidazole-7-carboximidamide]",6.22
9,"Cc1c[nH]c(-c2nc3nccc(/C(=N/O)Nc4ccc(F)c(Cl)c4)c3[nH]2)n1 [Example 151, N-(3-Chloro-4-fluorophenyl)-N′-hydroxy-2-(4-methyl-1H-imidazol-2-yl)-1H-imidazo[4,5-b]pyridine-7-carboximidamide]",6.33
10,"CC(C)NCc1nc2nccc(/C(=N/O)Nc3ccc(F)c(Cl)c3)c2[nH]1 [Example 116, N-(3-Chloro-4-fluorophenyl)-N′-hydroxy-2-((isopropylamino)methyl)-1H-imidazo[4,5-b]pyridine-7-carboximidamide]",6.13

# More lines, now with the values ahead:
row,pEC50,Compound
1,5.54,"CCN(CC)CCNc1nc2nccc(/C(=N/O)Nc3ccc(F)c(Cl)c3)c2[nH]1 [Example 167, N-(3-Chloro-4-fluorophenyl)-2-((2-(diethylamino)ethyl)amino)-N′-hydroxy-1H-imidazo[4,5-b]pyridine-7-carboximidamide]"
2,6.26,"O/N=C(\Nc1cccc(C(F)F)c1)c1ccnc2nc[nH]c12 [Example 98, N-(3-(difluoromethyl)phenyl)-N′-hydroxy-1H-imidazo[4,5-b]pyridine-7-carboximidamide]"
3,< 5.00,"NS(=O)(=O)NCCc1nc2nccc(/C(=N/O)Nc3ccc(F)c(Cl)c3)c2[nH]1 [Example 267, N-(3-chloro-4-fluorophenyl)-N′-hydroxy-2-(2-(sulfamoylamino)ethyl)-1H-imidazo[4,5-b]pyridine-7-carboximidamide]"
4,6.22,"O/N=C(\Nc1cccc(OC(F)(F)F)c1)c1ccnc2nc[nH]c12 [Example 99, N′-Hydroxy-N-(3-(trifluoromethoxy)phenyl)-1H-imidazo[4,5-b]pyridine-7-carboximidamide]"
5,6.11,"O/N=C(\Nc1ccc(F)c(Cl)c1)c1ccnc2nc(NCCc3ccccc3)[nH]c12 [Example 156, N-(3-Chloro-4-fluorophenyl)-N′-hydroxy-2-(phenethylamino)-1H-imidazo[4,5-b]pyridine-7-carboximidamide]"
6,6.25,"CN(CCc1nc2nccc(/C(=N/O)Nc3ccc(F)c(Cl)c3)c2[nH]1)CC1CC1 [Example 186, N-(3-Chloro-4-fluorophenyl)-2-(2-((cyclopropylmethyl)(methyl)amino)ethyl)-N′-hydroxy-1H-imidazo[4,5-b]pyridine-7-carboximidamide]"
7,5.72,"COc1ccccc1CNCc1nc2nccc(/C(=N/O)Nc3ccc(F)c(Cl)c3)c2[nH]1 [Example 123, N-(3-Chloro-4-fluorophenyl)-N′-hydroxy-2-(((2-methoxybenzyl)amino)methyl)-1H-imidazo[4,5-b]pyridine-7-carboximidamide]"
8,< 5.00,"O/N=C(\Nc1ccc(F)c(Cl)c1)c1ccnc2nc(NC3COC3)[nH]c12 [Example 226, N-(3-chloro-4-fluorophenyl)-N′-hydroxy-2-(oxetan-3-ylamino)-1H-imidazo[4,5-b]pyridine-7-carboximidamide]"
9,5.19,"CC(C)(O)c1nc2nccc(/C(=N/O)Nc3ccc(F)c(Cl)c3)c2[nH]1 [Example 175, N-(3-Chloro-4-fluorophenyl)-N′-hydroxy-2-(2-hydroxypropan-2-yl)-1H-imidazo[4,5-b]pyridine-7-carboximidamide]"
10,5.82,"O/N=C(\Nc1ccc(F)c(Cl)c1)c1ccnc2nc(NCCN3CCCCC3)[nH]c12 [Example 222, N-(3-chloro-4-fluorophenyl)-N′-hydroxy-2-((2-(piperidin-1-yl)ethyl)amino)-1H-imidazo[4,5-b]pyridine-7-carboximidamide]"
11,5.30,"NC1=NCCN1CCc1nc2nccc(/C(=N/O)Nc3ccc(F)c(Cl)c3)c2[nH]1 [Example 209, 2-(2-(2-amino-4,5-dihydro-1H-imidazol-1-yl)ethyl)-N-(3-chloro-4-fluorophenyl)-N′-hydroxy-1H-imidazo[4,5-b]pyridine-7-carboximidamide]"
12,5.90,"COCCN1CCC(Nc2nc3nccc(/C(=N/O)Nc4ccc(F)c(Cl)c4)c3[nH]2)C1 (centres unmarked) [Example 281, N-(3-chloro-4-fluorophenyl)-N′-hydroxy-2-((1-(2-methoxyethyl)pyrrolidin-3-yl)amino)-1H-imidazo[4,5-b]pyridine-7-carboximidamide]"
13,6.14,"CN(C)CCc1nc2nccc(/C(=N/O)Nc3cccc(Cl)c3)c2[nH]1 [Example 264, N-(3-chlorophenyl)-2-(2-(dimethylamino)ethyl),N′-hydroxy-1H-imidazo[4,5-b]pyridine-7-carboximidamide]"

# Same assay, conditions: HeLa cells, IFNγ-induced IDO1, kynurenine in supernatant, 48 hour incubation; geometric mean of a minimum of four determinations
row,Compound,pEC50
1,"CN(C)C1(CNc2nc3c(F)c(F)cc(/C(=N/O)Nc4ccc(F)c(Cl)c4)c3[nH]2)CCCC1 [Example 438, N-(3-chloro-4-fluorophenyl)-2-(((1-(dimethylamino)cyclopentyl)methyl)amino)-4,5-difluoro-N′-hydroxy-1H-benzo[d]imidazole-7-carboximidamide]",6.08
2,"COc1c(F)cc(/C(=N/O)Nc2ccc(F)c(Cl)c2)c2[nH]cnc12 [Example 307, N-(3-chloro-4-fluorophenyl)-5-fluoro-N′-hydroxy-4-methoxy-1H-benzo[d]imidazole-7-carboximidamide]",6.68
3,"N#CCCNc1nc2c(F)c(F)cc(/C(=N/O)Nc3ccc(F)c(Cl)c3)c2[nH]1 [Example 340, N-(3-chloro-4-fluorophenyl)-2-((2-cyanoethyl)amino)-4,5-difluoro-N′-hydroxy-1H-benzo[d]imidazole-7-carboximidamide]",5.75
4,"CN(C)[C@@H]1CCC[C@H](Nc2nc3c(F)c(F)cc(/C(=N/O)Nc4ccc(F)c(Cl)c4)c3[nH]2)C1 [Example 440, N-(3-chloro-4-fluorophenyl)-2-(((1S,3R)-3-(dimethylamino)cyclohexyl)amino)-4,5-difluoro-N′-hydroxy-1H-benzo[d]imidazole-7-carboximidamide]",5.18
5,"O/N=C(\Nc1ccc(F)c(Cl)c1)c1cc(F)c(F)c2nc(NCCN3CCC[C@H]3C(F)(F)F)[nH]c12 [Example 470, (S)-N-(3-chloro-4-fluorophenyl)-4,5-difluoro-N′-hydroxy-2-((2-(2-(trifluoromethyl)pyrrolidin-1-yl)ethyl)amino)-1H-benzo[d]imidazole-7-carboximidamide]",5.38

# Further lines, results first:
row,pEC50,Compound
1,5.12,"CNC(C)Cc1nc2nccc(/C(=N/O)Nc3ccc(F)c(Cl)c3)c2[nH]1 (centres unmarked) [Example 327, N-(3-chloro-4-fluorophenyl)-N′-hydroxy-2-(2-(methylamino)propyl)-1H-imidazo[4,5-b]pyridine-7-carboximidamide]"
2,5.12,"N[C@@H]1CCCC[C@@H]1Nc1nc2c(F)c(F)cc(/C(=N/O)Nc3ccc(F)c(Cl)c3)c2[nH]1 [Example 474, 2-(((1S,2R)-2-aminocyclohexyl)amino)-N-(3-chloro-4-fluorophenyl)-4,5-difluoro-N′-hydroxy-1H-benzo[d]imidazole-7-carboximidamide]"
3,5.50,"CN(C)[C@H]1CCCC[C@@H]1Nc1nc2c(F)c(F)cc(/C(=N/O)Nc3ccc(F)c(Cl)c3)c2[nH]1 [Example 444, N-(3-chloro-4-fluorophenyl)-2-(((1S,2S)-2-(dimethylamino)cyclohexyl)amino)-4,5-difluoro-N′-hydroxy-1H-benzo[d]imidazole-7-carboximidamide]"
4,5.15,"CS(=O)(=O)NCCNc1nc2nccc(/C(=N/O)Nc3ccc(F)c(Cl)c3)c2[nH]1 [Example 405, N-(3-chloro-4-fluorophenyl)-N′-hydroxy-2-((2-(methylsulfonamido)ethyl)amino)-1H-imidazo[4,5-b]pyridine-7-carboximidamide]"
